Experiment [1] has as its system soleus muscle strips. Put plainly: 3-O-methyl glucose transport (3MGT) in incubated soleus muscle strips (Example 12). Type of experiment: cell-based, rat. The following applies: for effect on 3MGT: 10 minute incubation. How it is done: Male Sprague-Dawley rats are used in all the following examples. Soleus muscle strips are incubated as described by Bonen et al (1992), Wilkes and Bonen (2000) and Bonen et al (1994) to determine glucose transport. Basal and insulin-stimulated 3-O-methyl glucose transport (3MGT) is examined in a dose dependent (0-10 nM) manner during a 10 minute incubation period in appropriate buffer (Bonen et al., 1994). Comparison of this dose-response relationship of insulin, and the A1 agonist CPA, and A2 agonist DPMA on 3MGT is conducted. 3MGT rates are linear for up to 20 minutes. The 10 minute period is therefore a convenient time point to acquire sufficient counts in the muscle at a reasonable cost of using radiolabelled 3MGT.
Optimal stimulating concentrations of insulin, CPA, and DPMA are established for 3MGT.

In experiment [2] the test system is Akt. Put plainly: Signaling protein activation in isolated rodent muscles (Example 14). Format: cell-based, rat. How it is done: Experiments with insulin, CPA and DPMA are performed in isolated muscles using optimal stimulating concentrations to determine which signaling proteins are activated. For this purpose, isolated rodent muscles are incubated with either basal or maximal insulin concentrations with and without either CPA or DPMA. Glucose transport is determined by 3MGT, measured over 10 minutes. The muscle samples are analyzed for IRTK, IRS-1 associated P13 kinase, p38 MAP kinase and Akt activities. The critical exposure time to activate signaling proteins is established in pilot work. […] Optimal exposure times required for signaling protein activation by CPA and DPMA are established. […] We establish that blocking P13-kinase with LY29004 blocks downstream activation of Akt by insulin, and by CPA and DPMA.

In experiment [3] the test system is A1 and A2 adenosine receptors. Put plainly: Adenosine receptor-stimulated adenylate cyclase activity (cAMP) in skeletal muscle homogenates (Example 4). Format: biochemical, rat. How it is done:
The purpose of this study was to investigate the presence of A1 and A2 adenosine receptors (AR) in rat and human skeletal muscle. Adenosine receptor-stimulated adenylate cyclase activity studies were conducted to determine cAMP responses in the presence of AR agonists using rat skeletal muscle homogenates. Subsequently, Western blotting experiments were conducted to identify the A1 and A2 receptor proteins in rodent and human skeletal muscle samples. […] There was little effect of R-PIA (an A1 AR agonist) on cAMP levels in any fiber type. […] A2a expression was highest in the liver compared to muscle and heart homogenates.

The subject of experiment [4] is lean sedentary males. As to the kind of experiment: Hyperinsulinemic euglycemic clamp after caffeine ingestion (Example 1). Format: in vivo, human. How it is done: (§1) The methods and materials employed in this invention are common to those skilled in the art. The methods and materials for the hyperinsulinemic euglycemic glucose clamp test are found in Greer et al., 2001. The methods and materials for the oral glucose tolerance test (OGTT) are described in Graham et al., 2001.
Trials were separated by one week. Prior to each clamp session, subjects withdrew from methylxanthine containing products for 48 hours.

In experiment [5] the test system is young, fit, adult males. Put plainly: Oral glucose tolerance test (OGTT) after caffeine ingestion in lean males (Example 2). Format: in vivo, human.
Text: as §1
Young, fit, adult males (n=18) underwent two oral glucose tolerance tests (OGTT). […] Following the OGTT all of these parameters increased (p≦0.05) for the duration of the OGTT. […] During the OGTT these decreased to match those of the placebo trial. […] The data support the hypothesis that caffeine ingestion impairs glucose disposal.

The subject of experiment [6] is healthy male subjects. Put plainly: OGTT after alkaloid caffeine, caffeinated coffee, decaffeinated coffee or placebo (Example 3). Type of experiment: in vivo, human. Conditions: two hours of the OGTT; n=10. On the procedure: as §1
Venous blood samples were taken at −30, 0 (treatment given), 60 (OGTT administered), 75, 90, 120, 150 and 180 minutes and were analyzed for glucose, insulin, C peptide, glycerol, free fatty acids and lactate. Area under the curve (AUC) were calculated for the two hours of the OGTT. […] This component acts as an adenosine receptor […].

The subject of experiment [7] is obese (BMI>30) nondiabetic males. As to the kind of experiment: OGTT after caffeine ingestion in obese nondiabetic males (Example 5). Format: in vivo, human. Conditions: obese males (n=4).
Experiment [8] deals with obese (BMI=30-38 kg/m2) men. Put plainly: OGTT after caffeine before and after a weight loss program (Example 6). Format: in vivo, human.
Experiment [9] concerns young, sedentary, obese males. As to the kind of experiment: OGTT after caffeine in obese, resting males (Example 7). Type of experiment: in vivo, human. The following applies: p<0.05.
Experiment [10] concerns obese and Type 2 diabetic males. Put plainly: OGTT with and without caffeine in lean, obese and Type 2 diabetic males (Example 8). Type of experiment: in vivo, human. An excerpt:
The results will be compared to the current data base; containing data (28,40) collected in an identical fashion for 30 lean (BMI of less than 25) males age 18-30 years. Lean subjects have BMI of less than 25, the obese are class I (BMI 30-34), abdominal obese (waist circumference>100 cm) and the diabetics have the same anthropometry. The diabetics are volunteers who have been well controlled for a year, with glycosylated hemoglobin levels between 6.5-9.5% for at least three months. They have similar levels of obesity, are not insulin-dependent, and are not on oral hypoglycemic agents, but rather diet-controlled. Their participation is medically approved and they are screened for hypertension and angina. The area under the curve for insulin and C-peptide is greater for the obese and even greater for the diabetic subjects. […] Data also includes plasma catecholamines, methylxanthines, FFA, and glycerol.

Experiment [11] relates to young type 1 diabetics. Put plainly: Caffeine followed by high glycemic index cereal in type 1 diabetics (Example 18). Format: in vivo, human. How it is done: Young type 1 diabetics (5 females and 1 male) who had been diagnosed for an average of 8.3±5.4 years volunteered to perform two trials in a randomized, double blind study design. Subjects were given either placebo or caffeine-containing (5 mg/kg) capsules and 30 minutes later they self-administered the appropriate amount of insulin for the ingestion of 60 g of carbohydrates in the form of a high glycemic cereal with 125 ml of 1% milk. The amount of self-administered insulin and injection site were the same for both trials. Venous blood glucose was measured prior to capsule ingestion, prior to insulin injection, and immediately following ingestion of the cereal meal (t=0 minutes). Blood glucose was then measured every 15 minutes for the next 2.5 hours.

In experiment [12] the test system is obese type 2 diabetic males. Put plainly: OGTT with and without caffeine in obese type 2 diabetic males (Example 19). Type of experiment: in vivo, human.
Where [13] appears, read: caffeine 5 mg/kg 1 h before 75 g dextrose, p≦0.05.
Where [14] appears, read: last 90 minutes of the OGTT, p≦0.05.

We go through six compounds from patent US20030007996A1, “Therapies for the prevention and treatment of diabetes and obesity” (priority 2001, published 2003).

Structures are written as SMILES.

As to `OC[C@H]1O[C@@H](n2cnc3c(NC4CCCC4)ncnc32)[C@H](O)[C@@H]1O` [CPA, N6-cyclopentyladenosine], the “effect on 3MGT” value in [1] is “increases”.
On the same count and under the same terms, the value for `COc1cc(OC)cc(C(CNc2ncnc3c2ncn3[C@@H]2O[C@H](CO)[C@@H](O)[C@H]2O)c2ccccc2C)c1` (stereo partly shown) [DPMA, N-[2-(3,5-dimethoxy-phenyl)-2-(2-methylphenyl)ethyl]-adenosine] was “increases”.
Turning to `O=c1cc(N2CCOCC2)oc2c(-c3ccccc3)cccc12` [LY29004], in [1], the “effect on CPA- and DPMA-induced increases in 3MGT” value is on record as “inhibited”; the “effect on insulin stimulated 3MGT” value is “inhibited”. Also, the “effect on downstream activation of Akt by insulin, and by CPA and DPMA” value in experiment [2] is on record as “blocks”.
Turning to `CCNC(=O)[C@H]1O[C@@H](n2cnc3c(N)ncnc32)[C@H](O)[C@@H]1O` [NECA], the “effect on cAMP production” value in experiment [3] (glycolytic samples) is reported as “no effect”. In [3] (rat oxidative muscle homogenates), the “increase in cAMP production” value was 7.5 fold.
Consider `C[C@H](Cc1ccccc1)Nc1ncnc2c1ncn2[C@@H]1O[C@H](CO)[C@@H](O)[C@H]1O` [R-PIA], for which the “effect on cAMP levels” value in experiment [3] (any fiber type) was “little effect”.
Regarding `Cn1c(=O)c2c(ncn2C)n(C)c1=O` [caffeine], the “decrease in carbohydrate storage compared to placebo” value in [4] (caffeine 5 mg/kg) is 35%. In experiment [4] (caffeine 5 mg/kg vs placebo), the “decrease in glucose disposal” value came out at 24%. This compound also came in with a glucose disposal in experiment [4] (caffeine 5 mg/kg, placebo 8.42+/−0.63, n=9) of 6.38 ± 0.76 mg/kg/min. The “serum fatty acids, glycerol and plasma epinephrine” value in experiment [5] (after caffeine ingestion, before OGTT, p≦0.05) is recorded as “increase”. Also, in experiment [5] (setting [13]), the “serum C peptide area under the curve, greater than placebo” value stood at 37% and the “serum insulin area under the curve, greater than placebo” value is reported as 60%. The “blood glucose level vs placebo” value in experiment [5] (during OGTT) is recorded as “no differences between trials”. Also, in experiment [5] (setting [14]), the “serum C peptide concentration vs placebo” value was “significantly greater” and the “serum insulin concentration vs placebo” value was “significantly greater”. Further, the “AUC for GLU” value in [5] (lean males (n=18), OGTT) worked out at 168 mM/2 h. Moreover, in experiment [5] (lean males (n=18), OGTT, placebo 3274), the “insulin AUC” value was 5242 uU/ml/2h. Besides, in [6], the “AUC for glucose, comparison between treatments” value is “higher than both CC (p<0.04) and DC (p<0.01)”; the “AUC for insulin, comparison between treatments” value is “higher AUC for insulin (see FIG. 5) than both PL (p<0.002) and DC (p<0.001)”; the “AUC for peptide C, comparison between treatments” value is “higher values than both PL (p<0.02) and DC (p<0.001)”. For the same compound, the “AUC for GLU” value in experiment [7] is reported as 167 mM/2 h. For the same compound, in [7] (placebo 6938), the “insulin AUC” value is listed as 10,968 uU/ml/2 h. Also, the “increase in insulin during the OGTT compared to placebo” value in [8] (following the twelve week intervention, p=0.056) is reported as “greater”. Further, in experiment [8] (prior to the twelve week intervention), the “blood glucose vs placebo” value is on record as “no differences”. Further, the “insulin response during the OGTT vs placebo” value in experiment [8] (prior to the twelve week intervention, caffeine 5 mg/kg, p=0.043) is “greater”. For the same compound, in [9] (caffeine 5 mg/kg, n=28, placebo 188.5), the “glucose area under the curve during the OGTT” value is reported as 260.1 mM/2h. The “insulin area under the curve during the OGTT” value in experiment [9] (caffeine 5 mg/kg, n=28, placebo 7037.9) worked out at 9455.8 uIU/ml/2h. Besides, the “glucose level vs placebo” value in experiment [9] (last 90 minutes of the OGTT) is recorded as “significantly greater”. Moreover, in experiment [9] (last 105 minutes of the OGTT), the “insulin level vs placebo” value is recorded as “significantly greater”. The “area under the curves for insulin and C-peptide following caffeine ingestion” value in experiment [10] (lean subjects) was “increased”. Further, the “area under the curves for insulin and C-peptide following caffeine ingestion” value in experiment [10] (obese and diabetic subjects, relative to lean) is listed as “even greater response”. Moreover, the “difference in the glucose area under the curve, caffeine vs placebo” value in [11] (caffeine 5 mg/kg) turned out to be 72%. Also, the “glucose area under the curve” value in experiment [11] (caffeine 5 mg/kg capsules, placebo 347±7.4, p<0.01) was 598±7.4 mM/2.5 h. The blood glucose in [12] (180 minutes following ingestion of the OGTT, caffeine 5 mg/kg, placebo 7.4±1.0) came out at 8.4 ± 0.8 mM. In [12] (last hour of the OGTT (120 to 180 minutes), p<0.05), the “blood glucose compared with placebo” value is “significantly elevated”.
